Measured values: EP0585371B1, “AROMATIC OLIGOMERIC COMPOUNDS USEFUL AS MIMICS OF BIOACTIVE MACROMOLECULES” (RHONE-POULENC RORER INTERNATIONAL (HOLDINGS) INC., priority 1991, dated 1992)

Columns and labels:
vWF Binding to Gp1b = target: T1, vWF Binding to Gp1b (Homo sapiens, UniProt P04275+P07359); assay: Inhibition of ristocetin-induced binding of 125I-vWF to formalin-fixed platelets; details: ristocetin 1.0 mg/ml; for Ristocetin-Induced Inhibition of vWF Binding to Gp1b: at 100 µg/ml
T1 construct: multimeric vWF (isolated from human plasma cryoprecipitate); Formalin-fixed platelets, prepared according to the method of MacFarlane; from tissue; host or cells: vWF from human plasma cryoprecipitate; GPIb on formalin-fixed platelets
Protocol: The binding of vWf (vonWillebrand Factor) to glycoprotein Ib is measured in one of two experimental systems, in the presence of either ristocetin or botrocetin as modulators of binding. The ristocetin modulated binding is described herein.
Formalin-fixed platelets, prepared according to the method of MacFarlane, D. et al., Thromb. Diath. Haemorrh. 34, 306-308 (1975), were preincubated at room temperature for 15 minutes with specified dilutions of oligomers according to the present invention. Ristocetin, (Sigma, St. Louis, MO) diluted to a final concentration of 1.0 mg/ml, and ^125I-labelled multimeric vWF (isolated from human plasma cryoprecipitate according to the method of Fulcher, C.A. et al. Proc. Natl. Acad. Sci. USA, 79, 1648-1652 (1982), and labelled according to the method of Fraker, P.J. et al. Biochem. Biophys. Res. Commun., 80, 849-857 (1978)) were then added to the incubation mixture, and the amount of ^125I- vWF bound to the platelets was determined. ^125I-vWF binding to the platelets was referenced against 100% binding which was defined as the amount of ^125I- vWF bound in the absence of added oligomer compound. The method for measuring vWF binding is reported in detail in Ruggeri et al., J. Clin. Invest., 72, 1-12, (1983), herein incorporated by reference.

normal pooled plasma = assay: Anticoagulation activity, Activated Partial Thromboplastin Time (APTT) test; details: concentration required to double clotting time
Protocol: The following test measures anticoagulant activity of the oligomers of the present invention and utilizes the Activated Partial Thromboplastin Time (APTT) test, with the following procedures.
To an assay cuvette is added 100 µl of normal pooled plasma (George King Biomedical Inc., Kansas) and […] of a solution containing the test compound in aqueous 50 mM Tris hydrochloride at pH 7.5 (0.2 mg of sample in one ml buffer). The sample is placed in a MLA coagulation timer which automatically maintains the sample at 37°C for 2.5 minutes, 100 µl of actin activated cephaloplastin reagent is injected, kept 5 minutes, 100 µl of 35 mM CaCI is injected, and clot formation is determined photometrically and the clotting time recorded. Each example is examined at a variety of concentrations, generally from about .025 mg/ml to about 1 mg/ml, and the clotting times are graphed as a function of concentration. From the graphic results, the concentration required to double clotting time (ICDCT) is calculated by linear interpolation.

[1] = tested on: human fixed thrombin activated platelets; assay: Platelet aggregation inhibition (fibrinogen-induced); format: cell-based; details: human fibrinogen added
Protocol: The method for measuring platelet aggregation inhibition is essentially that of Ruggeri, et al., Proc. Natl. Acad. Sci. USA, 83, 5708-5712 (1986), using formalin-fixed platelets as prepared by Plow, et al., Proc. Natl. Acad. Sci. USA, 79, 3711-3715 (1982). A given amount of the compound of the present invention or other compound to be tested (10 to 100 µl of a 1 mg/ml solution) is incubated at 37°C with 400 µl of human fixed thrombin activated platelets for 2 minutes. 12.5 µl of human fibrinogen solution is added and aggregation is monitored using a platelet aggregation profiler (Model PAP-4). Controls consist of fibrinogen added to incubated platelets and the resulting aggregation is considered as 100%. Percent inhibition in the presence of a given concentration of test compound versus concentration of the compound is plotted and the concentration required to give 50% inhibition (IC50) is determined.

[2] = target: T2, ESb mouse lymphoma heparanase (Mus musculus, UniProt Q6YGZ1); assay: Inhibition of heparanase activity (degradation of labeled ECM heparan sulfate); format: biochemical; details: 24 hours incubation with labeled ECM
T2 construct: endogenous in cells; host or cells: ESb mouse lymphoma cells
T2 sequence (Q6YGZ1 28-535): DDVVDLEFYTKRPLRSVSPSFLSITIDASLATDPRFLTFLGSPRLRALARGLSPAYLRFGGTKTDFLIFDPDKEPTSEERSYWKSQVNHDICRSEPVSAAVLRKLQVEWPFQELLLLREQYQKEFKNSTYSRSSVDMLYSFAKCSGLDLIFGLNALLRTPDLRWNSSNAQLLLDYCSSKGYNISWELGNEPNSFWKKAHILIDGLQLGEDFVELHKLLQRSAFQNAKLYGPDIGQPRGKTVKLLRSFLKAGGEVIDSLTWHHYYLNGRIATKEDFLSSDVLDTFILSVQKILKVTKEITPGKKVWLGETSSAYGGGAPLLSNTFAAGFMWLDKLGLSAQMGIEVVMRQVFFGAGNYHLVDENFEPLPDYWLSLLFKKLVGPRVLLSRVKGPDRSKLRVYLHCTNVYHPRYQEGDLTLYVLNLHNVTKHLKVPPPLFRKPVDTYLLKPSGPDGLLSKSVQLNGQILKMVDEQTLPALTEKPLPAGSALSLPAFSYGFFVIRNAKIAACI
Protocol: Heparanase is an endoglucuronidase capable of degrading […] (HS) at specific intrachain sites.
The ability of compounds of the present invention to inhibit lymphomacell derived heparanase is tested in the assay system described by Vlodavsky et al., Cancer Research 43, 2704-2711 (1983). […] labeled ECM is incubated for 24 hours with ESb mouse lymphoma heparanase in the presence of various concentrations of the oligomers tested. Degradation of the HS is followed by gel filtration of the supematants. Heparanase activity is expressed as the total amount of labeled low-molecular-weight fragments released from the EMC substrate.

T1 sequence (P04275 764-2813 limits assumed): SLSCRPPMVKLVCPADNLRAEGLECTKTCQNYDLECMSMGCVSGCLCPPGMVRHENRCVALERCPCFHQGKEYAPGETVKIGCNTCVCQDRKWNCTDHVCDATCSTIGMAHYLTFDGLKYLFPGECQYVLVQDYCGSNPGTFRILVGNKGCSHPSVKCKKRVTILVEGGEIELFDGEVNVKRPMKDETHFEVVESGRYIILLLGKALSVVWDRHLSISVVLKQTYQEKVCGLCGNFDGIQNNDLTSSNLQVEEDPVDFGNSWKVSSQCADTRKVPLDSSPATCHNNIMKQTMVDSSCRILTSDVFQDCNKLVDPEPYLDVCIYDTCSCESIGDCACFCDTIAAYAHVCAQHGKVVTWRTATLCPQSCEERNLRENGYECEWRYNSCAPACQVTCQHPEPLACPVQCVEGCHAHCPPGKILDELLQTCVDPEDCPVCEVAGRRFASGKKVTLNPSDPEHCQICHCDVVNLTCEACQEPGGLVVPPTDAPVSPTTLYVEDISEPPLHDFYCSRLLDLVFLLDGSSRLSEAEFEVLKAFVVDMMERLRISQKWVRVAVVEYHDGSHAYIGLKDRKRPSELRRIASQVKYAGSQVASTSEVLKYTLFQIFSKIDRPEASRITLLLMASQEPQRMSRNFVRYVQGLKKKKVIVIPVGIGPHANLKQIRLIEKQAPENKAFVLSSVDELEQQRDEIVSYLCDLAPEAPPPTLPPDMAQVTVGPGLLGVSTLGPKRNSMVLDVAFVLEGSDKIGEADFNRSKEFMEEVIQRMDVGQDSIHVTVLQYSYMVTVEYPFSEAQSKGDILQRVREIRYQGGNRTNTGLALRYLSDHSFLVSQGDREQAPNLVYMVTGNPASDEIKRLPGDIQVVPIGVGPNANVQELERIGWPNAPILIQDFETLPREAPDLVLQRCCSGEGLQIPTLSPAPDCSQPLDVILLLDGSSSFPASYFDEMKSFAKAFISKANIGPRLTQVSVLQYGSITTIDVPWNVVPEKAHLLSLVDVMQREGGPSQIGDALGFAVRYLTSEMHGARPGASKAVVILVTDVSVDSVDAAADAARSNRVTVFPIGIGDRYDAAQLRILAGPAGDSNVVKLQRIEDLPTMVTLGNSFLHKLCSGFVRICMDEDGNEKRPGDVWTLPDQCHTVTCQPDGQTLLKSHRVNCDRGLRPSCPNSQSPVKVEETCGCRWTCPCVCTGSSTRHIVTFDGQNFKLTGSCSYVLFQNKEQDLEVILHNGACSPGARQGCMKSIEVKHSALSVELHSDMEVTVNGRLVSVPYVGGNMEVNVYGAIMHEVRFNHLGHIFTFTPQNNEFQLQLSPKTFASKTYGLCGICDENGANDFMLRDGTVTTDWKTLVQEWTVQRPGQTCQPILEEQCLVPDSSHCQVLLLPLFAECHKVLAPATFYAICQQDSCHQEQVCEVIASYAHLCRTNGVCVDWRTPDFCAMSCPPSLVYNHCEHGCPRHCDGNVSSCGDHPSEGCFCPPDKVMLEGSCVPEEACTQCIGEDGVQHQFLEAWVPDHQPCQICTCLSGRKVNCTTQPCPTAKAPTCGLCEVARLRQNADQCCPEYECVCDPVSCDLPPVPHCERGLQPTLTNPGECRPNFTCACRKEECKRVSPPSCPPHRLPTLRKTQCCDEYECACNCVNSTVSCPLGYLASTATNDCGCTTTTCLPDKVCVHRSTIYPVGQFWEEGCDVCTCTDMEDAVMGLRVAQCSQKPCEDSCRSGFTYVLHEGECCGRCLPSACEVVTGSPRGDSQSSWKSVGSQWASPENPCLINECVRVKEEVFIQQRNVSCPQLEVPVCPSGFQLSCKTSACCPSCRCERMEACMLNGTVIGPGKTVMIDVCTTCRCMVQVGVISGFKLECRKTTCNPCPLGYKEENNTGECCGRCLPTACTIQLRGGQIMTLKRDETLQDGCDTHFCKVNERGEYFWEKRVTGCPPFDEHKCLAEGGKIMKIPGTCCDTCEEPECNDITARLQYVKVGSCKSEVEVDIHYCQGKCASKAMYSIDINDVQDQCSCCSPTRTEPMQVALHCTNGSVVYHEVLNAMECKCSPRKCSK
T1 sequence (P07359 17-652): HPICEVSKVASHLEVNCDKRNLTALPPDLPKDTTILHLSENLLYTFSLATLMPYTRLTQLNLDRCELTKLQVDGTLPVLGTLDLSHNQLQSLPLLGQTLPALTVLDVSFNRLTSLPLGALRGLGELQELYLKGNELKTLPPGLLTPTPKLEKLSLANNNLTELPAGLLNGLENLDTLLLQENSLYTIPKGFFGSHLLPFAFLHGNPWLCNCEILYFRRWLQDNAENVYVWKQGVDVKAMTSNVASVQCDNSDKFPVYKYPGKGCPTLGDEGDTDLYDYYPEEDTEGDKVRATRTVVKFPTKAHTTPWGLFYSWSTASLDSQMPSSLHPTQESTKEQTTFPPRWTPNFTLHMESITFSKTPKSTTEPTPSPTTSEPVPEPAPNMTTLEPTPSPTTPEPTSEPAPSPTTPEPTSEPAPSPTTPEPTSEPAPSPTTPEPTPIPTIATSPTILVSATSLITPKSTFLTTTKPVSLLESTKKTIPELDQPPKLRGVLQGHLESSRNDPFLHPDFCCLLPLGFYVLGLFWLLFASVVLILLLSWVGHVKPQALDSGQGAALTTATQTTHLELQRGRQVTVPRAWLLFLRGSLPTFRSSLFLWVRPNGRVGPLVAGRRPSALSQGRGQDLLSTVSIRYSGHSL

| Structure (SMILES) | Ristocetin-Induced Inhibition of vWF Binding to Gp1b IC50 (vWF Binding to Gp1b) [µg/mL] | APTT ICDCT (normal pooled plasma) [µg/mL] | IC50 (vWF Binding to Gp1b) [µM] | Platelet Aggregation IC50 [1] [µg/mL] | % Inhibition of Heparanase Activity (5µg/ml) [2] [%] | Ristocetin-Induced Inhibition of vWF Binding to Gp1b (vWF Binding to Gp1b) [% at 100 µg/ml] |
| --- | --- | --- | --- | --- | --- | --- |
| COc1ccc(CCC(=O)O)c(COc2cc(CCC(=O)O)c(COc3cc(CCC(=O)O)c(COc4cc(CCC(=O)O)c(COc5cc(CCC(=O)O)ccc5OC)cc4OC)cc3OC)cc2OC)c1 [Ex12, Step 11, 2-[4-[4-[4-[[5-(2-carboxyethyl)-2-methoxy]phenoxymethyl]-[5-(2-carboxyethyl)-2-methoxy]phenoxymethyl]-[5-(2-carboxyethyl)-2-methoxy]phenoxymethyl]-[5-(2-carboxyethyl)-2-methoxy]phenoxymethyl]-4-methoxyhydrocinnamic acid] | >100 | >250 | – | – | – | – |
| O=C(O)CCc1ccc(O)c(Cc2cc(CCC(=O)O)cc(Cc3cc(CCC(=O)O)cc(Cc4cc(CCC(=O)O)ccc4O)c3O)c2O)c1 [Ex 1, Step 3, bis-[5-(2-carboxyethyl)-3-[5-(2-carboxyethyl)-2-hydroxybenzyl]2-hydroxyphenyl]methane] | – | >250 | > 143 | – | – | – |
| COc1cc(C)c(CCC(=O)O)cc1Cc1cc(OC)c(Cc2cc(OC)c(Cc3cc(OC)c(Cc4cc(OC)c(Cc5cc(OC)c(Cc6cc(OC)c(Cc7cc(O)ccc7CCC(=O)O)cc6CCC(=O)O)cc5CCC(=O)O)cc4CCC(=O)O)cc3CCC(=O)O)cc2CCC(=O)O)cc1CCC(=O)O [Ex 5, Step 2, 5-[4-[4-[4-[4-[4-[4-[[2-(2-carboxyethyl)-5-hydroxy]benzyl]-[2-(2-carboxyethyl)-5-methoxy]benzyl]-[2-(2-carboxyethyl)-5-methoxy]benzyl]-[2-(2-carboxyethyl)-5-methoxy]benzyl]-[2-(2-carboxyethyl)-5-methoxy]benzyl]-[2-(2-carboxyethyl)-5-methoxy]benzyl]-[2-(2-carboxyethyl)-5-methoxy]benzyl]-4-methoxy-2-methylhydrocinnamic acid] | – | 37 | – | >1000 | 20 | – |
| O=C(O)CCc1cc(Cc2cc(O)c(Cc3cc(O)c(Cc4cc(O)ccc4CCC(=O)O)cc3CCC(=O)O)cc2CCC(=O)O)c(O)cc1CCc1cc(O)c(Cc2cc(O)c(Cc3cc(O)c(Cc4cc(O)ccc4CCC(=O)O)cc3CCC(=O)O)cc2CCC(=O)O)cc1CCC(=O)O [Ex 6, 1,2-bis-[4-[4-[4-[[2-(2-carboxyethyl)-5-hydroxy]benzyl]-[2-(2-carboxyethyl)-5-hydroxy]benzyl]-(2-(2-carboxyethyl)-5-hydroxy]benzyl]-[2-(2-carboxyethyl)-5-hydroxy]phenyl]ethane] | – | 387 | – | >1000 | – | 42 |
| COc1cc(CCc2cc(OC)c(Cc3cc(OC)c(Cc4cc(OC)c(Cc5cc(O)ccc5CCC(=O)O)cc4CCC(=O)O)cc3CCC(=O)O)cc2CCC(=O)O)c(CCC(=O)O)cc1Cc1cc(OC)c(Cc2cc(OC)c(Cc3cc(O)ccc3CCC(=O)O)cc2CCC(=O)O)cc1CCC(=O)O [Ex 7, 1,2-bis-[4-[4-[4-[[2-(2-carboxyethyl)-5-hydroxy]benzyl]-[2-(2-carboxyethyl)-5-methoxy]benzyl]-[2-(2-carboxyethyl)-5-methoxy]benzyl]-[2-(2-carboxyethyl)-5-methoxy]phenyl]ethane] | – | 500 | – | – | – | 17 |
| COc1cc(Cc2cc(CCC(=O)O)c(C)cc2O)c(CCC(=O)O)cc1Cc1cc(OC)c(Cc2cc(OC)c(Cc3cc(OC)c(Cc4cc(OC)c(Cc5cc(OC)c(Cc6cc(OC)c(Cc7cc(OC)c(Cc8cc(OC)c(Cc9cc(OC)c(Cc%10cc(OC)c(Cc%11cc(OC)c(Cc%12cc(OC)c(Cc%13cc(OC)c(Cc%14cc(O)ccc%14CCC(=O)O)cc%13CCC(=O)O)cc%12CCC(=O)O)cc%11CCC(=O)O)cc%10CCC(=O)O)cc9CCC(=O)O)cc8CCC(=O)O)cc7CCC(=O)O)cc6CCC(=O)O)cc5CCC(=O)O)cc4CCC(=O)O)cc3CCC(=O)O)cc2CCC(=O)O)cc1CCC(=O)O [Ex 8] | – | 35 | – | – | 70 | – |
| COc1cc(CCc2cc(OC)c(Cc3cc(OC)c(Cc4cc(OC)c(Cc5cc(OC)c(Cc6cc(OC)c(Cc7cc(OC)c(Cc8cc(OC)c(Cc9cc(O)ccc9CCC(=O)O)cc8CCC(=O)O)cc7CCC(=O)O)cc6CCC(=O)O)cc5CCC(=O)O)cc4CCC(=O)O)cc3CCC(=O)O)cc2CCC(=O)O)c(CCC(=O)O)cc1Cc1cc(OC)c(Cc2cc(OC)c(Cc3cc(OC)c(Cc4cc(OC)c(Cc5cc(OC)c(Cc6cc(OC)c(Cc7cc(O)ccc7CCC(=O)O)cc6CCC(=O)O)cc5CCC(=O)O)cc4CCC(=O)O)cc3CCC(=O)O)cc2CCC(=O)O)cc1CCC(=O)O [Ex 9, 1,2-bis-[4-[4-[4-[4-[4-[4-[4-[[2-(2-carboxyethyl)-5-hydroxy]benzyl]-[2-(2-carboxyethyl)-5-methoxy]benzyl]-[2-(2-carboxyethyl)-5-methoxy]benzyl]-[2-(2-carboxyethyl)-5-methoxy]benzyl]-[2-(2-carboxyethyl)-5-methoxy]benzyl]-[2-(2-carboxyethyl)-5-methoxy]benzyl]-[2-(2-carboxyethyl)-5-methoxy]benzyl]-[2-(2-carboxyethyl)-5-methoxy]phenyl]ethane] | – | 105 | – | 319 | 52 | – |
| COC(=O)CCc1cc(OCc2cc(OC)c(OCc3cc(OC)c(OCc4cc(OC)c(OC(C)=O)cc4CCC(=O)OC)cc3CCC(=O)OC)cc2CCC(=O)OC)c(OC)cc1CO [Ex 10, Step 13] | – | >250 | – | – | – | – |
